Laboratory results reported in EP0075139A1 (priority 1981, dated 1983).

Key:
[1] = tested on: Phytophthora infestans; format: in vivo; details: 0,025 %ige Spritzbrühe; potted tomato "Große Fleischtomate"; assessed 5 days after infection; value given as 'beispielsweise' (for example)
[2] = tested on: Plasmopara viticola; experiment: Efficacy against Plasmopara viticola on potted vine leaves (protective spray, greenhouse); format: in vivo; details: 0,025 %ige Spritzbrühe; potted vines "Müller-Thurgau"; infected 10 days after spraying; value given as 'beispielsweise' (for example)
Excerpt: Wirksamkeit gegen Plasmopara viticola
Blätter von Topfreben der Sorte "Müller-Thurgau" werden mit wäßriger Spritzbrühe, die 80 % Wirkstoff und 20 % Emulgiermittel in der Trockensubstanz enthält, besprüht. Um die Wirkungsdauer der Wirkstoffe beurteilen zu können, werden die Pflanzen nach dem Antrocknen des Spritzbelages 10 Tage im Gewächshaus aufgestellt. Erst dann werden die Blätter mit einer Zoosporenaufschwemmung von Plasmopara viticola (Rebenperonospora) infiziert. Danach werden die Reben zunächst für 16 Stunden in einer wasserdampfgesättigten Kammer bei 24°C und anschließend für 8 Tage in einem Gewächshaus mit Temperaturen zwischen 20 und 30 C aufgestellt. Nach dieser Zeit werden die Pflanzen zur Beschleunigung des Sporangienträgerausbruchs abermals für 16 Stunden in der feuchten Kammer aufgestellt. Dann erfolgt die Beurteilung des Ausmaßes des Pilzausbruches auf den Blattunterseiten.
Das Ergebnis des Versuches zeigt, daß beispielsweise die Verbindungen Nr. 1, 2, 11 und 12 bei Anwendung als 0,025 %ige Spritzbrühe eine bessere fungizide Wirkung (beispielsweise 100 %) zeigen als der bekannte Wirkstoff A (beispielsweise 90 %).

COC(=O)C(C)N(C(=O)C(C)=NOCc1c(Cl)cccc1Cl)c1c(C)cccc1C (stereo not drawn) [Verbindung Nr. 22, N-(2,6-Dimethyl-phenyl)-N-[(1-methoxycarbonyl)-1-ethyl]-2-[O-(2,6-dichlor-benzyl)-oximino]-brenztraubensäure-amid]
fungizide Wirkung [1]: 90%

CC(=O)C(=O)N(c1c(C)ccc2ccccc12)C1CCOC1=O (stereo not drawn) [Verbindung Nr. 1, N-(2-Methyl-1-naphthyl)-N-(alpha-butyro--gamma-lactonyl)-brenztraubensäure-amid]
fungizide Wirkung [2]: 100%
fungizide Wirkung [1]: 90%

S=C([S-])NCCNC(=S)[S-].[Zn+2] [Verbindung C, Zink-ethylen-1,2-bis-dithiocarbamat]
fungizide Wirkung [1]: 70%

O=C1c2ccccc2C(=O)N1SC(Cl)(Cl)Cl [Verbindung A, N-Trichlormethylthio-phthalimid]
fungizide Wirkung [2]: 90%

O=C1C2CC=CCC2C(=O)N1SC(Cl)(Cl)Cl (stereo not drawn) [Verbindung B, N-Trichlormethylthio-tetrahydrophthalimid]
fungizide Wirkung [1]: 70%
